From patent publication US20230364007A1, “ADMINISTRATION OF A P[…]” (Reset Pharmaceuticals, Inc., priority 2022, published 2023)

What was measured:
[1] = Particle size distribution (PSD) analysis by laser diffraction; assay type: physicochemical; details: primary pressure of 4 bar, lens R1, R3 or R5 per sample
Protocol: (§1) In order to provide a small and homogeneous particle size of psychedelic compound in the final suspensions, psilocybin and psilocin were micronised before use. Micronisation was performed by wet bead milling using decafluoropentane as the antisolvent. In a glass vial, 200 mg psychedelic compound and 2 g of 1 mm silica beads were weighed. 3 mL of the antisolvent was added for psilocybin and 2 mL for psilocin. The samples were vortexed for approximately 15 seconds then milled at 530 rpm for 60 minutes.
(§2) The micronised sample was then separated from the silica beads and transferred to a petri dish and left at room temperature to allow for evaporation of the solvent overnight (approximately 18 hours). The dried sample was then collected and characterised by PSD and XRPD.
Particle size analysis was carried out, in single analysis, by laser diffraction using a Sympatec Helos particle size analyser, equipped with a RODOS dry dispersion unit and ASPIROS feeder unit. The lens and primary pressures were varied for each compound tested.

[2] = One compartment SC PK model of psilocin fitted to digitised rat SC data
Protocol: Rat SC PK data was digitised for four dose levels (Higgins, G. A. et al., 2021. “Low Doses of Psilocybin and Ketamine Enhance Motivation and Attention in Poor Performing Rats: Evidence for an Antidepressant Property”. Frontiers in Pharmacology, Volume 12, p. 299). The PK was fitted using a one compartment SC model where volume was fixed to the same as human in L/kg. The model was fit to the lower 3 doses levels as the higher dose was determined to be out of the range of investigation.
A one compartment model was used with linear absorption and clearance shown schematically in […]. Mathematically, this model is a series of two linked ordinary differential equations (ODE's) given in equations (7)-(8).
Constant ka is the absorption rate constant (units 1/h), Cl is the clearance (units mL/h), Vc is the volume of distribution of the central compartment (units mL).
It is assumed that the generation of psilocin is instantaneous once psilocybin is absorbed. Due to a lack of rat IV PK data and human and rat plasma protein binding data, total rat volume of distribution (V) on ml/kg basis was fixed to the same as human total volume of distribution. A one compartment SC model gives a satisfactory fit to the absorption phase, seen in FIG. 5, this gives good confidence of the fitted ka value seen in Table 2. Bioavailability was again assumed to be 1.

XRPD after micronisation = assay type: physicochemical; details: wet bead milling in decafluoropentane
Protocol: as §1, §2
X-ray powder diffraction (XRPD) analysis was carried out using a Bruker D2 Phaser powder diffractometer equipped with a LynxEye detector. The specimens were located at the centre of a silicon sample holder within a 5 mm pocket. The samples were continuously spun during data collection and scanned using a step size of 0.02° two theta (2θ) between 5° to 60° two theta, the detailed parameters are summarised in Table 10. The data was processed using Diffrac Plus EVA software (Version 3.1).

[3] = Solubility in excipients (preparative work)
[4] = Two-compartment IV bolus PK model fitted to published human psilocybin IV data; details: psilocin after 1 mg psilocybin IV
Protocol: All analysis was performed using the software R and RStudio, with models being defined using analytical and ODE solutions.
Derivation of system PK parameters for psilocybin/psilocin Systemic PK parameters were derived for published human bolus psilocybin IV data.
Human IV PK data for psilocin after psilocybin was administered was taken from Hasler et al. “Determination of psilocin and 4-hydroxyindole-3-acetic acid in plasma by HPLC-ECD and pharmacokinetic profiles of oral and intravenous psilocybin in man”. Pharm Acta Helv. 1997 June; 72(3):175-84. Model selection was performed by assessing visual fit to data and the respective model AIC's of a one compartment and two compartment IV PK model. These systemic human PK parameters were then used for human […] injection simulations by simulating the PK profiles over a range of doses and absorption rates.
It is assumed that the generation of psilocin is instantaneous and complete once psilocybin is absorbed.
An IV two compartment model best described the IV data from FIG. 2. A two-compartment model gave a good description of the raw data capturing the Cmax and terminal phase well, FIG. 3. The systemic PK parameters can be seen in Table 1 and there are low errors in the parameter estimates.

[5] = Human simulations of psilocin exposure after SC administration; details: from absorption rate of rat SC model
Protocol: The model that was used is shown schematically in FIG. 6, mathematically the analytical solution is shown in equations (9)-(14).
Using the absorption rate from modelling the rat SC data and the human systemic psilocin PK parameters, human SC simulations were run over 1-12 mg doses and the simulated PK profiles can be seen in FIG. 7. […] These profiles can be seen in FIG. 8, with the summary statistics in Table 4.

[6] = reported; cited from earlier work
[7] = psilocin after SC psilocybin, rat, fit to 0.05, 0.1, 1 mg/kg

SMILES: CN(C)CCc1c[nH]c2cccc(O)c12 [Micronised psilocin]
- D10 [1]: 0.44 μm

SMILES: CN(C)CCc1c[nH]c2cccc(OP(=O)(O)O)c12 [Micronised psilocybin]
- D10 [1]: 0.45 μm
- D50 [1]: 1.20 μm

SMILES: CN(C)CCc1c[nH]c2cccc(O)c12 [psilocin, 4-hydroxy-N,N-dimethyltryptamine]
- dose normalised AUC ([2]; 10 mg/kg SC psilocybin dose in rats versus other doses (not shown)): considerably greater than the other doses
- Cl (95% CI) [2, 7]: 2490 (2260, 2710) mL/h
- ka, absorption rate constant (95% CI) [2, 7]: 2.32 (2.03, 2.61) /h
- V ([2]; rat, fixed to human total volume of distribution on ml/kg basis): 1746 (Fixed) mL
- chemical degradation upon micronisation (XRPD) (XRPD after micronisation): no significant chemical degradation upon micronisation
- solubility versus pH ([3]; initial solution trials): higher solubility at acidic pH
- solubility in DMSO and NMP ([3]; non-micronised): good
- Cl, clearance (95% CI) [4]: 3810 (3340, 4290) ml/min
- V, volume of distribution of the central compartment (95% CI) [4]: 88600 (77300, 99900) ml
- k12 (95% CI) [4]: 0.176 (0.144, 0.208) /min
- k21 (95% CI) [4]: 0.0489 (0.0388, 0.0591) /min
- absorption half-life [5]: 17.9 min

SMILES: CN(C)CCc1c[nH]c2cccc(OP(=O)(O)O)c12 [psilocybin, [3-(2-dimethylaminoethyl)-1H-indol-4-yl] dihydrogen phosphate]
- chemical degradation upon micronisation (XRPD) (XRPD after micronisation): no significant chemical degradation upon micronisation
- solubility in all the excipients tested ([3]; non-micronised, 20 excipients): poor
- bioavailability [6]: approximately 50%
